Columns and labels:
[1] = tested on: HeLa cells expressing FUS GFP; experiment: Stress granule formation in HeLa FUS GFP cells under different stresses; type: cell-based; conditions: 10 μM; mitochondrial (rotenone), hyperosmotic (sorbitol) or arsenate stress
Experimental: The stressor, arsenate, will react with the thiol groups of lipoamide. Therefore, to exclude the possibility that lipoamide is acting only by removing the stressor, so it was further tested whether lipoic acid can prevent stress granule formation triggered by other stresses than arsenate (an oxidative) stress: Mitochondrial electron transport chain inhibition (rotenone), heat stress (42° C.), hyperosmotic stress (sorbitol, a non-metabolisable sugar), glycolysis inhibition ([…] in the absence of glucose) or serum starvation.
Various cellular stresses were achieved by replacing 1 h 1 mM potassium arsenate treatment with other conditions: 100 μM rotenone (R8875, Sigma Aldrich) from a 1 M stock in DMSO for 2 h (mitochondrial stress). […] Sorbitol (S1876, Sigma Aldrich) from a 4 M stock in H2O for 1 h (osmotic stress). 42° C. in normal growth medium for 30 m (heat stress). […] Appropriate solvent controls were used.

FUS GFP = biological target: T1, FUS GFP (Homo sapiens, UniProt P35637); experiment: Salt (KCl) sensitivity of FUS GFP droplet formation in vitro; type: biochemical; conditions: 100 μM compound, 2.8 μM FUS GFP
T1 construct: His MBP (N, cleaved yes); made in house; host or cells: baculovirus/insect cell expression system
T1 sequence (P35637 1-526): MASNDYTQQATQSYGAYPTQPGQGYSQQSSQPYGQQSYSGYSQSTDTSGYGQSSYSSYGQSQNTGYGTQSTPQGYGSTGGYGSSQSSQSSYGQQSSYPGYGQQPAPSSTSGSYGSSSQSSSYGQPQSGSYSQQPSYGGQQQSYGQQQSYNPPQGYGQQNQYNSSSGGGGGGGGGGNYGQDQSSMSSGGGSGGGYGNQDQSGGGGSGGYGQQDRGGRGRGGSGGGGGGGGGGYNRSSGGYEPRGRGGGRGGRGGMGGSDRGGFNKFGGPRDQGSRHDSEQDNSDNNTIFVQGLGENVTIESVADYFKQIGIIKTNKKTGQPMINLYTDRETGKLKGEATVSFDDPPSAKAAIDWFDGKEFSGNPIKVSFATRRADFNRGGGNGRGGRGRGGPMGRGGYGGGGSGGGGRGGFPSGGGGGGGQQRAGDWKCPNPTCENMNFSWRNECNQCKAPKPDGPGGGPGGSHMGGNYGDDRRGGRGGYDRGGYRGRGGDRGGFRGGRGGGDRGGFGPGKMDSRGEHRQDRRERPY
Experimental: FIG. 6A) Droplets formed by 2.8 μM FUS GFP in vitro with different concentrations of KCl (which inhibits droplet formation) with 100 μM lipoamide, lipoic acid or equivalent DMSO solvent control (1%). Lipoamide and lipoic acid subtly promote droplet formation. FIG. 6B) Effect of lipoamide and lipoic acid on G156E FUS GFP droplet ‘aging’ while shaking, relative to an equivalent DMSO solvent control (0.3%). Both compounds delay fibre formation. FIG. 6C) Representative fluorescence recovery after photobleaching (FRAP) of FUS droplets and fibres formed during the aging shown in FIG. 6B). Aged droplets treated with lipoamide or lipoic acid retain fast FRAP indicating liquidity. FIG. 6D) Quantitation of fluorescence signal intensity illustrated in FIG. 6C). Error bars represent standard deviation.
It was determined if lipoic acid or lipoamide affected the conditions under which FUS would phase separate in vitro. […]
For in vitro solidification assays, FUS GFP in storage buffer was diluted in water to give 10 μM FUS, 50 mM Tris·HCl pH 7.4 and 1 mM DTT in a 20 μl volume in non-binding clear bottom 384 well plates (Greiner Bio-One, 781906). […] Fibre and droplet formation were analysed by widefield epifluorescence using a DeltaVision Elite microscope (GE Healthcare Life Sciences) with a Plan ApoN 60× NA 1.4 oil immersion objective (Olympus) and an sCMOS camera (PCO). […]

[2] = tested on: iPS MNs expressing P525L FUS; experiment: Axon dieback of iPS-derived motor neurons expressing P525L FUS; type: cell-based, human; conditions: 2 μM in culture medium, 60 days
From the text: In humans, one cause of familial ALS is FUS mutation, particularly in the C terminal NLS. P525L is one such mutation, and iPSC-derived motor neurons (iPSC MNs) expressing P525L from ALS patients show defects consistent with motor neuron defects in the patient. iPSC MNs can be grown through silicone channels, positioning the soma on one side with the axons protruding through the channels to the far side. Such cultures can be maintained for long periods (>60 days). However, when expressing P525L FUS, the axons die back within this time period without exogenous cell stressors, although P525L FUS MNs have a greater propensity to form stress granules. This is similar to axon retraction leading to motor dysfunction in patients. Therefore whether lipoamide or lipoic acid was able to improve these phenotypes was tested. […] To test this the inventors analysed transport of lysosomes within the axons of iPS MNs expressing P525L FUS with or without lipoamide in comparison to iPS MNs expressing WT FUS (FIGS. 12A-12B). […]
For analysis of axon dieback transport AH-ALS1-F58 iPS MNs expressing P525L FUS or an isogenic control expressing WT FUS were grown with 2 μM compound or an equal volume of DMSO for 60 days. […] Experiments and analysis were performed blinded, and axonal dieback was scored qualitatively using phase contrast images captured every 10 to 20 days.

| SMILES | stress granule formation [1] | conditions (KCl concentration) under which FUS phase separates (FUS GFP) | axon die back [2] |
| --- | --- | --- | --- |
| NC(=O)CCCCC1CCSS1 (racemic) [lipoamide, 5-(1,2-dithiolan-3-yl)pentanamide] | reduced stress granule formation | slightly increasing the minimum KCl concentration at which phase separation would occur | prevented such die back |
| O=C(O)CCCCC1CCSS1 (racemic) [lipoic acid, 5-(1,2-dithiolan-3-yl)pentanoic acid] | reduced stress granule formation | slightly increasing the minimum KCl concentration at which phase separation would occur | prevented such die back |

From US12422427B2, “Compounds for treatment of diseases and methods of screening therefor” (Max-Planck-Gesellschaft zur Förderung der Wissenschaften …, priority 2018, dated 2025)
